Assay results published in patent US20250064801A1, “USE OF 5-AMINO-2,3-DIHYDRO-1,4-PHTHALAZINEDIONE IN THE TREATMENT OF CONGENITAL MUSCULAR DYSTROPHIES” (METROPHARM AG, priority 2022, published 2025).

How the values were obtained:
[1] = tested on: musculus extensor digitorum longus (EDL) muscle in the mdx mouse; assay: Contractile properties (maximum force) of the musculus extensor digitorum longus measured in vitro at end of treatment of mdx mice; format: in vivo
Description: The mdx mouse model is the most widely used and investigated animal model in the research of Duchenne muscular dystrophy since the early 1980ies. These mice are characterized by muscle weakness, histological evidence of myopathy and elevated serum levels of creatin kinase (CK) (cf. Bulfield et al. (1984) PNAS 81: 1189-1192). Herein, CK levels are a marker of the breakdown of CK-rich tissues such as skeletal muscles (rhabdomyolysis). The mutation in the mdx mouse is a nonsense mutation (C-to-T transition) in exon 23 that aborts full-length dystrophin expression (cf. Sicinski et al. (1989) Science 244: 1578-1580). Symptoms are moderate and the mean lifespan is reduced by about 25%. During the first two weeks after birth mdx mice are indistinguishable from wild-type mice. Then skeletal muscle necrosis starts until week 6 after birth and thereupon enters in a plateau phase characterized by muscle hypertrophy. […] Many aged mdx mice develop spontaneous sarcoma.
Mice were identified by ear tags. […] These cages were assigned randomly to treatment groups. Animals were monitored daily for changes in behavior.
The experiments were carried out by AGADA Biosciences (Halifax, Canada) on behalf of the applicant. All treatment substances were provided by the applicant. All treatment groups started with 15 mice. Treatment was blinded.
Contractile properties were measured in vitro on the right musculus extensor digitorum longus (EDL) at the end of the study. The mice were anesthetized using ketamine and xylamine. The EDL muscle of the right hindlimb was removed from each mouse and immersed in individual carbogenated baths (95% O2, 5% CO2) containing Ringer's solution (pH 7.4) at 25° C. The muscle was flanked by two electrodes. Using non-fatiguing twitches, the muscle was maintained at 10 mN for force generation. The maximal force was measured with the muscle held at 10 mN. The muscle was stimulated with an electrode to elicit tetanic contractions that are separated by 2-minute rest intervals. […] This plateau was considered the maximum force (mN) generated by the muscle. The cross-sectional area of the muscle was measured based on muscle mass, muscle length, and tissue density. Finally, the muscle specific force (kN/m^2) was calculated based on the cross-sectional area of the muscle and was converted in relation to the individual body weight ([…]).

[2] = Body weight of mdx mice measured weekly over the treatment period; conditions: 1.0 mg/kg (prednisolone oral syrup, deflazacort IP)
Description: Animals were received in 2 cohorts (n=49-56; 7-8 per group). Mice were sorted into a total of five treatment groups. The mice of the control groups were wild type C57BL/10ScSnJ and the dmx strain C57BL/10ScSn-Dmdmdx/J. The animals were acclimatized upon arrival to the animal facility for 7 days, housed in cages with up to 5 mice per cage. During the study, 12-hour light/11-hour dark cycles were maintained. Room temperature was maintained between 20° C. and 23° C. Food and water were available ad libitum for the duration of the study. Mice were identified by ear tags. Randomization was done based on the average body weight of the cage. These cages were assigned randomly to treatment groups. Animals were monitored daily for changes in behavior. […]
All treatment compounds were administered via intraperitoneal (IP) injection, with exception of prednisolone that was delivered via oral syrup. […] Once the injection was delivered, the mouse was monitored for a couple of minutes for any adverse side effects. […] Once the complete treatment was delivered the mouse was placed back into its cage and monitored for a couple of minutes for any adverse side effects.
The body weight was measured weekly starting after acclimation of the animals to the facility and the beginning of the treatment (5 weeks of age). […]

[3] = mdx mice, 1.0 mg/kg (prednisolone oral syrup, deflazacort IP)
[4] = mdx mice, 1.0 mg/kg (prednisolone oral syrup, deflazacort IP), right EDL in Ringer's solution 25° C., mean ±SEM

Row | Structure (SMILES) | dose dependence of the maximum force generated by the muscle ([1]; mouse, in vivo) | maximum force generated by the muscle (EDL), related to body weight ([1]; mouse, in vivo, ip, 5 mg/kg) | percentual improvement of maximum force in comparison to the untreated mdx mice control group (set as 100%) ([1]; mouse, in vivo, ip, 5 mg/kg) | percentual improvement of maximum force in comparison to the untreated mdx mice control group (set as 100%) [1, 3] | maximum force generated by the muscle (EDL), related to body weight [1, 4] | difference in body weight (diminished increase) ([2]; from about week 6) | body weight increase over the treatment ([2]; weeks of age 5-10, starting at about week 6)
1 | Nc1cccc2c(=O)[nH][nH]c(=O)c12.[Na] [5-amino-2,3-dihydro-1,4-phthalazinedione sodium salt] | dose-dependent improvement | 106.1±8.0 mN/kg | 16.4% | – | – | – | –
2 | CC(=O)OCC(=O)[C@@]12N=C(C)O[C@@H]1C[C@H]1[C@@H]3CCC4=CC(=O)C=C[C@]4(C)[C@H]3[C@@H](O)C[C@@]12C [deflazacort] | – | – | – | 6.2% | 96.8±5.2 mN/kg | – | –
3 | C[C@]12C=CC(=O)C=C1CC[C@@H]1[C@@H]2[C@@H](O)C[C@@]2(C)[C@H]1CC[C@]2(O)C(=O)CO [prednisolone] | – | – | – | 18.0% | 107.5±7.2 mN/kg | about 7% | significantly diminished body weight increase
